Assay results as given in patent publication US20220128542A1, “TREATMENT EFFICIENCY EVALUATION” (TX MEDIC AB, priority 2019, published 2022).

Tests used:
Human Schwann cells = test: Gene expression array and pathway/upstream regulator analysis in Schwann cells (Example 2); assay type: cell-based; details: 0.01 mg/ml
Description: (§1) For each cell line, n=8×25 cm^2 culture flasks were set up. Two flasks were harvested for each cell type on the day of treatment (24 hours after seeding). This represents the Day0 time point. From the remaining flasks, three flasks were treated with Control Medium and three were treated with Culture Medium (CM) containing LMW-DS to give a final concentration of 0.01 mg/ml. Cells from the treated flasks were collected after 48 hours. Therefore the collected data represent (a) untreated cells (Day0 Controls and Day2 Controls) and (b) cells treated with LMW-DS for 48 hours (Day2 LMW-DS treated).
(§2) 25 cm^2 flasks were coated by adding 2 ml per flask of a solution of 50 μg/ml poly-d-lysine in Hank's balanced salt solution (HBSS) and incubating overnight at 37° C. in the dark. Flasks were washed with cell culture water and air-dried for 30 min in the dark. Flasks were coated by adding 1 ml per flask of a solution of 25 μg/ml laminin in phosphate-buffered saline (PBS) and incubating for 2 hour at 37° C. in the dark. The laminin flasks were washed with PBS three times before plating cells.
Schwann cells growth medium was prepared by adding 10% of fetal bovine serum (FBS) to high-glucose DMEM and pre-warmed to 37° C. Cells were thawed in a 37° C. water bath for no longer than 2 min.
Cells from 12 vials were each gently transferred to a tube containing 10 ml of high-glucose DMEM medium and centrifuged at 400 relative centrifugal field (RCF) for 10 min. Pellet was re-suspended in culture medium. The cells from the 12 vials were mixed and distributed equally into the previously coated 25 cm^2 flasks (n=8). Cells were incubated at 37° C. with 5% CO2. Cells were allowed to settle for 24 hours before LMW-DS treatment.
(§3) A fresh 100× LMW-DS stock (1.0 mg/ml) was prepared in sterile DMEM-F12. The concentrated drug stock was sterile filtered and added to the respective culture media (19.6 ml CM and 0.4 ml LMW-DS stock solution). The Control was made using 19.6 ml CM and 0.4 ml of DMEM-F12. LMW-DS and CM were added to the respective flasks (5 ml each) to reach the 0.01 mg/ml concentration of LMW-DS in each dish with a total of 10 ml CM each.
(§4) CM was aspirated into a clean and labelled 15 ml Falcon tube. The flasks (without culture medium) were placed into the −80° C. freezer for 30 minutes. The CM in the Falcon tubes was spun at 3000×g for 5 minutes. Supernatant was removed and the small pellet was re-suspended in 2.5 ml Trizol:Water (4:1) solution at room temperature (RT, ˜22° C.).
(§5) The frozen flasks were removed one-by one from the freezer and the Trizol-Water from the appropriate tubes was moved to the flask. Flasks were left at RT for 5 minutes before the content was aspirated back into the 15 ml Falcon tube (after washing the bottom of the flask with the solution thoroughly). The flasks were inspected under the microscope to ensure full removal of cells. The collected lysates in the 15 ml Falcon tubes were placed into the −80° C. freezer.
(§6) Falcon tubes containing the homogenates were removed from the freezer and stored for 5 minutes at RT to permit the complete dissociation of nucleoprotein complexes.
(§7) Two aliquots of 1 ml lysate were removed from each sample and 200 μl of chloroform was added to each (0.2 ml of chloroform per 1 ml of TRIzol Reagent used during the cell lysis step) and the tube was shaken vigorously. Samples were stored at RT for 2-3 minutes and subsequently centrifuged at 12,000×g for 15 minutes at 4° C.
(§8) The mixture separated into three layers: a lower red phenol-chloroform phase, an interphase and a colorless upper aqueous phase. The RNA remained in the top aqueous phase, DNA in the white middle (interphase) phase and protein in the pink bottom (organic) phase. The top ¾ of the aqueous phase was transferred to a new clean Eppendorf tube.
The RNA was precipitated from the aqueous phase by adding an equal amount of 100% ethanol. The precipitated RNA was fixed onto a Spin Cartridge, washed twice and dried. […]

Mouse cortical neurons = test: Gene expression array and pathway analysis in cortical neurons (Example 2); assay type: cell-based; details: for differentially expressed genes: cortical neuron section (printed motor neurons)
Description: as §1, §2
Medium was prepared by adding 10 ml B-27 Serum-Free Supplement and 2.5 ml GlutaMAX™-I Supplement to 500 ml of Neurobasal medium. The medium was pre-warmed to 37° C. Cells from 12 vials were thawed sequentially in a 37° C. water bath for no longer than 2 min and gently transferred into a 15 ml tube. 9 ml of medium was gently added drop-wise to each. The cell suspension was mixed by inverting the tubes carefully twice.
The cells were centrifuged for 5 minutes at 200×g. Supernatant was removed (to the last 0.5 ml) and cells were gently re-suspended by trituration. The cells from the 12 vials were mixed and distributed equally into the previously coated 25 cm^2 flasks (n=8). Cells were incubated at 37° C. with 5% CO2 for 24 hours.
as §3, §4, §5, §6, §7, §8
The RNA was precipitated from the aqueous phase by adding an equal amount of 100% ethanol. […]

[1] = cortical neurons, 0.01 mg/ml, 48 hours

With sodium salt of dextran sulfate [LMW-DS] the “number of genes: no effect / abolished nutrient effect” value (Human Schwann cells; 48 hours) was 21, the “number of genes: no effect / total” value (Human Schwann cells; 48 hours) was 21 and the “number of genes: significant downregulation / abolished nutrient effect” value (Human Schwann cells; 48 hours) was 1. For the same substance, the “number of genes: significant downregulation / enhanced response to nutrients” value (Human Schwann cells; 48 hours) was 122, the “number of genes: significant downregulation / new effect induced by LMW-DS” value (Human Schwann cells; 48 hours) was 352 and the “number of genes: significant downregulation / not different from control” value (Human Schwann cells; 48 hours) was 42. The “number of genes: significant downregulation / total” value (Human Schwann cells; 48 hours) was 517, the “number of genes: significant upregulation / abolished nutrient effect” value (Human Schwann cells; 48 hours) was 13 and the “number of genes: significant upregulation / enhanced response to nutrients” value (Human Schwann cells; 48 hours) was 441. For the same substance, the “number of genes: significant upregulation / new effect induced by LMW-DS” value (Human Schwann cells; 48 hours) was 74, the “number of genes: significant upregulation / not different from control” value (Human Schwann cells; 48 hours) was 373 and the “number of genes: significant upregulation / total” value (Human Schwann cells; 48 hours) was 901. For the same substance, the “number of genes: total / abolished nutrient effect” value (Human Schwann cells; 48 hours) was 35, the “number of genes: total / enhanced response to nutrients” value (Human Schwann cells; 48 hours) was 563 and the “number of genes: total / new effect induced by LMW-DS” value (Human Schwann cells; 48 hours) was 426. The “number of genes: total / not different from control” value (Human Schwann cells; 48 hours) was 415, the “number of genes: total / total” value (Human Schwann cells; 48 hours) was 1439 and the differentially expressed genes (Human Schwann cells; D0 control vs D2 LMW-DS treated) was 1244 genes. The differentially expressed genes (Human Schwann cells; D2 control vs D2 LMW-DS treated) was 700 genes, the differentially expressed genes (Mouse cortical neurons; D0 control vs D2 LMW-DS treated, 0.01 mg/ml) was 609 genes and the differentially expressed genes (Mouse cortical neurons; second comparison, printed as D0 control to D2 LMW-DS treated) was 247 genes. The “number of genes: no effect / abolished nutrient effect” value (Mouse cortical neurons; [1]) was 572, the “number of genes: no effect / new effect induced by LMW-DS” value (Mouse cortical neurons; [1]) was 19 and the “number of genes: no effect / total” value (Mouse cortical neurons; [1]) was 591. For the same substance, the “number of genes: significant downregulation / abolished nutrient effect” value (Mouse cortical neurons; [1]) was 7, the “number of genes: significant downregulation / enhanced response to nutrients” value (Mouse cortical neurons; [1]) was 158 and the “number of genes: significant downregulation / new effect induced by LMW-DS” value (Mouse cortical neurons; [1]) was 22. For the same substance, the “number of genes: significant downregulation / not different from control” value (Mouse cortical neurons; [1]) was 95, the “number of genes: significant downregulation / total” value (Mouse cortical neurons; [1]) was 282 and the “number of genes: significant upregulation / abolished nutrient effect” value (Mouse cortical neurons; [1]) was 33. For the same substance, the “number of genes: significant upregulation / enhanced response to nutrients” value (Mouse cortical neurons; [1]) was 43, the “number of genes: significant upregulation / new effect induced by LMW-DS” value (Mouse cortical neurons; [1]) was 7 and the “number of genes: significant upregulation / not different from control” value (Mouse cortical neurons; [1]) was 221. The “number of genes: significant upregulation / total” value (Mouse cortical neurons; [1]) was 304, the “number of genes: total / abolished nutrient effect” value (Mouse cortical neurons; [1]) was 612 and the “number of genes: total / enhanced response to nutrients” value (Mouse cortical neurons; [1]) was 612. The “number of genes: total / new effect induced by LMW-DS” value (Mouse cortical neurons; [1]) was 48, the “number of genes: total / not different from control” value (Mouse cortical neurons; [1]) was 316 and the “number of genes: total / total” value (Mouse cortical neurons; [1]) was 1177.
